Results as given in paper PMC7457613 (bioRxiv, 2021).
“And” between values parts separate entries of the source, which are not always exact repeats. Identical values can stand only once. Like-named read-outs stand apart in the source and are kept apart here.

Experiments:
[1] = test system: SARS-CoV-2 USA-WA1/2020; assay: microbe, parasite or virus in culture; type: cell-based
[2] = test system: SARS-CoV-2 USA/NYU-VC-003/2020; assay: microbe, parasite or virus in culture; type: cell-based
[3] = test system: SARS-CoV-2 USA-WA1/2020; assay: Time-of-drug-addition assay in A549+ACE2 cells; type: cell-based; conditions: 12 hpi
[4] = test system: SARS-CoV-2 USA-WA1/2020; type: cell-based; conditions: for SARS-CoV-2 infectious titers in apical washes: 10 μM basolateral, washes in 12 h increments up to 72 h; for number of SARS-CoV-2-N-expressing infected cells in HAEC: 10 μM, 72 h endpoint, immunofluorescence
[5] = test system: A549+ACE2 cells
[6] = test system: polarized human airway epithelial cultures (HAEC)
[7] = test system: BCi-NS1.1 cells; conditions: dose range up to 10 μM, 48 hours
[8] = test system: SARS-CoV-2; conditions: cited from earlier work
[9] = test system: coronavirus 3CL^pro; conditions: cited from earlier work
[10] = test system: COVID-19; conditions: patients with more advanced infection, intravenous ref 55; cited from earlier work
[11] = in vitro; conditions: human
[12] = Severe acute respiratory syndrome coronavirus 2, A549-ACE2

Compound | protection of A549+ACE2 cells from ring syncytia formation (CPE) [1] | protection of A549+ACE2 cells from virus-induced CPE [1] | EC50 [2] | EC90 [2] | minimum treatment dose that led to undetectable infection levels [3] [µM] | SARS-CoV-2 infectious titers in apical washes [4] | number of SARS-CoV-2-N-expressing infected cells in HAEC [4] | CC50 [5] [nM] | adverse effects on morphology of HAEC (histology) [6] | trans-epithelial resistance (TEER) over time [6] | ATP levels as a measure of cell viability [7] | EC50 [1] | other results
COc1cccc2[nH]c(C(=O)N[C@@H](CC(C)C)C(=O)N[C@@H](C[C@@H]3CCNC3=O)C(=O)CO)cc12 [PF-00835231] | fully protected | fully protected | 184 nM and 326 nM | 591 nM and 1170 nM | 3 | viral titers below the limit of detection at most time points | number of infected cells significantly reduced | > 10000 | Neither drug caused measurable adverse effects on the morphology | did not observe this trend | did not detect a decrease in ATP | – | change in antiviral efficacy when blocking MDR1 activity [1]: no changes in antiviral efficacy; change in antiviral efficacy when blocking MDR1 activity [4]: no changes in antiviral efficacy; effect of chemical inhibition of MDR1 on antiviral efficacy ([8]; Vero E6 cells ref 9, 14): significantly increased; EC50 ([8]; Vero E6 cells ref 9): 270 nM; inhibition of 3CL^pro protease activity [9]: potent inhibition
CCC(CC)COC(=O)[C@H](C)N[P@](=O)(OC[C@H]1O[C@@](C#N)(c2ccc3c(N)ncnn23)[C@H](O)[C@@H]1O)Oc1ccccc1 [remdesivir] | fully protected | – | 238 nM | – | 10 | viral titers below the limit of detection at most time points | number of infected cells significantly reduced | – | Neither drug caused measurable adverse effects on the morphology | negatively impacted TEER over time, albeit not statistically significantly | caused a reduction in ATP levels compared to carrier control, albeit not statistically significantly | 238 nM | EC50 [1, 12]: 442 nM; EC50 [2, 12]: 283 nM; EC90 [2, 12]: 589 nM; patients with benefit [10]: 68%; CC50 [11]: > 10000 nM
CC(C)C[C@H](NC(=O)OCc1ccccc1)C(=O)N[C@@H](CC1CCNC1=O)C(O)S(=O)(=O)[O-].[Na+] (some centres unmarked) [GC-376] | – | unable to protect cells from virus-induced CPE | 529 nM | 2730 nM | 10 | – | – | > 10000 | – | – | – | 623 nM and 696 nM | EC90 [1]: 4550 nM and 5250 nM; EC50 ([8]; Vero E6 cells ref 11): 900 nM
